Results taken from the Kinase Knowledgebase extract (Sharma et al. 2016).

Molecular target: ROCK2 (human) (UniProt O75116)
Assay: Assessment of ROCK2 Kinase Activity

Sequence of ROCK2 (human) (O75116 whole entry, looked up): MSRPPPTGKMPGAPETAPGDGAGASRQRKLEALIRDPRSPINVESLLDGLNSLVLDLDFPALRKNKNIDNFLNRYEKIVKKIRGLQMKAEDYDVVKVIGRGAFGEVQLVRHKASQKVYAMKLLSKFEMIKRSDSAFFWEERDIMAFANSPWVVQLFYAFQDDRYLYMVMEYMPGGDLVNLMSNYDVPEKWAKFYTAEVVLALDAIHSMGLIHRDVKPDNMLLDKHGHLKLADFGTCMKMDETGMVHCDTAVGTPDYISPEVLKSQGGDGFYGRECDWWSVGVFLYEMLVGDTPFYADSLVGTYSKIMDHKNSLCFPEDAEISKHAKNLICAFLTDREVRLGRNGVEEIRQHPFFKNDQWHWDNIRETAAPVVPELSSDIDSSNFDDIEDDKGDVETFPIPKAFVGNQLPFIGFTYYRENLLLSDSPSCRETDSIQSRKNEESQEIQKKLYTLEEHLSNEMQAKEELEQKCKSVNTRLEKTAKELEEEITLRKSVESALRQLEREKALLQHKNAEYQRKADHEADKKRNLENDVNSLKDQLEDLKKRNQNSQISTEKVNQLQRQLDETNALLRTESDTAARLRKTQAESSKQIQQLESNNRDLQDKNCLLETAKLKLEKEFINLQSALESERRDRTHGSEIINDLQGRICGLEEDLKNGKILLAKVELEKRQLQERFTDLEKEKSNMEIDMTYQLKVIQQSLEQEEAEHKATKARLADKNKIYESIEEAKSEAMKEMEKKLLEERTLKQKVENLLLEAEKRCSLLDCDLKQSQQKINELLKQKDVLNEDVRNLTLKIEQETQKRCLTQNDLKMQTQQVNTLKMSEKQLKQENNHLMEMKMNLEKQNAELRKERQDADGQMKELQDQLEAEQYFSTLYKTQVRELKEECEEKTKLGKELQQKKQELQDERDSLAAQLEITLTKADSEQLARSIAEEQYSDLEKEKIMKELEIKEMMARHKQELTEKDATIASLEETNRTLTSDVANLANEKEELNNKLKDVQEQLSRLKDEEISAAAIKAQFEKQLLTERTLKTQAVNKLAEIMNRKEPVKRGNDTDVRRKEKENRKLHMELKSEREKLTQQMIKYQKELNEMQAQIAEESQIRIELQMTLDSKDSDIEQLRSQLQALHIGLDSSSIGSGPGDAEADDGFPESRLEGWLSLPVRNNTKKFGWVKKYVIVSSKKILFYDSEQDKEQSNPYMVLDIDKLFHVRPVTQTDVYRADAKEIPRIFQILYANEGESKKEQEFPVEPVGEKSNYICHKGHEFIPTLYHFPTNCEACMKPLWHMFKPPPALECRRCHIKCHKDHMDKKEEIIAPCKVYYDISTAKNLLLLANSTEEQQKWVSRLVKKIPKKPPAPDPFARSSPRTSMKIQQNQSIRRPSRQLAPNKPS

IC50, ≤ 1 µM:
O=c1[nH]ccc2cc(N[C@@H]3CCCN(Cc4ccc5ccccc5c4)C3)ccc12
Brc1cc2cnccc2cc1SC1CCCNCC1 (stereo not given)
CC(C)CCN1CCC[C@@H](Nc2ccc3c(=O)[nH]ccc3c2)C1
O=c1[nH]ccc2cc(N[C@H]3CCN(CC4CC4)C3)ccc12
O=c1[nH]ccc2cc(N[C@H]3CCN(Cc4cccc(Cl)c4F)C3)ccc12
CCCc1cc2cnccc2cc1SC1CCNCC1
O=c1[nH]ccc2cc(S(=O)(=O)C3CCNCC3)c(Cl)cc12
Clc1cc2cnccc2cc1SC1CCCNC1 (stereo not given)
O=c1[nH]ccc2cc(NC3CN(Cc4cccc(Cl)c4F)C3)ccc12
CCCCN1CCC[C@@H](Nc2ccc3c(=O)[nH]ccc3c2)C1
O=c1[nH]ccc2cc(N[C@H]3CCN(Cc4ccc5ccccc5c4)C3)ccc12
O=c1[nH]ccc2cc(NC3CN(Cc4ccccc4Cl)C3)ccc12
O=c1[nH]ccc2cc(N[C@@H]3CCCN(Cc4ccccc4)C3)ccc12
Cc1ccc(CN2CC[C@H](Nc3ccc4c(=O)[nH]ccc4c3)C2)cc1
O=c1[nH]ccc2cc(SC3CCNCC3)c(Cl)cc12
